The target of this experiment is T1, BaCYP106A6 (Bacillus sp. (in: firmicutes), UniProt Z9J180VW61).
T1 construct: His-tagged, pET28a(+), E. coli C41(DE3); Co2+ resin; monomer; N-terminus MLKEVI and C-terminus NVYK deduced from printed primers; heme-ligating Cys356; unique Arg295
T1 sequence (Z9J180VW61 1-410): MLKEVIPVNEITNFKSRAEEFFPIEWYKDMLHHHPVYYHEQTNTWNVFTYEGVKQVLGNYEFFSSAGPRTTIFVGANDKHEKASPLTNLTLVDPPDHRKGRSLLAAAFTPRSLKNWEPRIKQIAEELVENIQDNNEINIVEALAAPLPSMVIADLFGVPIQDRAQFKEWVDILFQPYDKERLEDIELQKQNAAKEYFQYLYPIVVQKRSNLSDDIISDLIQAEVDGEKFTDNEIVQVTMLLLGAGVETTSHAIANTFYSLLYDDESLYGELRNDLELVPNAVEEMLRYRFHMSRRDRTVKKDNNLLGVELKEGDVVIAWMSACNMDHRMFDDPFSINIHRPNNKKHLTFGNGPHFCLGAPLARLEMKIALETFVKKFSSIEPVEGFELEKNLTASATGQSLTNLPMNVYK
Kind of experiment: UV-visible type I difference spectral titration. The format is binding.

Molecules are shown by their SMILES.

The Kd is the free concentration of one partner at which half of the binding sites on the other are occupied at equilibrium, for simple one-to-one binding. Lower therefore signals tighter binding.

Take `C[C@]12CCC(=O)C=C1CC[C@@H]1[C@@H]2CC[C@]2(C)C(=O)CC[C@@H]12` [androstenedione]: binding was put at a Kd of 36.6 µM.

In turn, `CC(=O)[C@H]1CC[C@H]2[C@@H]3CCC4=CC(=O)CC[C@]4(C)[C@H]3CC[C@]12C` [progesterone] came in with a dissociation constant (Kd) of 38.4 µM.

Values taken from paper PMC10084758, “Crystal Structure and Biochemical Analysis of a Cytochrome P450 Steroid Hydroxylase (BaCYP106A6) from Bacillus Species” (Journal of Microbiology and Biotechnology, 2022).
